Test results from article PMC5799093, “Proceedings of Réanimation 2018, the French Intensive Care Society International Congress” (Annals of Intensive Care, 2018).
Read-outs that look alike come from different tables or passages of the source.

How the values were obtained:
[1] = Acute amitriptylin and clomipramine poisonings in the ICU, clinical features and pharmacokinetics; details: median; AMI [0.4 + 1.4], dose 1.5 g; CLO [0.5 + 1.4], dose 3.0 g
[2] = Delayed neuropsychiatric sequelae after carbon monoxide poisoning in outpatients
[3] = Population pharmacokinetics of cefotaxime and desacetylcefotaxime in critically ill children (P-168); format: in vivo, human (children)
Method: Patients and methods: All children aged less than 18 years, weighing more than 2.5 kg, and receiving intermittent CTX infusions were included. CTX and D-CTX were quantified by high performance liquid chromatography. Pharmacokinetics were described using the non-linear mixed effect modelling software MONOLIX. Monte Carlo simulations were used to optimize dosing regimen, in order to maintain serum concentration above the target concentration (defined at 2 mg L^−1) 100% of the time during the dosing interval.

[4] = tested on: Extended spectrum betalactamase producing Enterobacteriaceae; assay: Antibiotic resistance of ESBL producing Enterobacteriaceae (P-147); format: cell-based; details: isolates 2015 and 2016
[5] = Residual serum concentrations of piperacillin and amoxicillin and neurological disorders (HPLC MS); format: in vivo, critically ill patients
Method: Patients and methods: This study was carried out retrospectively during the period 01.01.2015 to 08.02.2017, in patients hospitalized in the medical ICU-CHU Rouen with PTM.

[6] = Beta-lactam plasma concentrations in children with severe sepsis or septic shock (HPLC); details: current standard dosing
Candida isolates = assay: Antifungal susceptibility of Candida isolates, Fungitest broth dilution; format: cell-based, Candida spp.
Method: Patients and methods: Our study is a retrospective review of 17 severely burned patients admitted to the burn unit of the Ben Arous Traumatology and Burns Center with one or more positive culture sites for Candida, during the 16-month period from May 2016 through August 2017. A total of 42 isolates were thus obtained. […] Since echinocandin and anidulafungine were recently introduced in Tunisia, the susceptibility to these antifungal classes was tested for only one patient from our cohort.

[7] = tested on: carbapenemase-producing Enterobacteriaceae; assay: Antibiotic susceptibility of Enterobacteriaceae with decreased susceptibility to carbapenems; format: cell-based; details: for resistant rate: CA-SFM 2015
[8] = Cyproheptadine poisoning, retrospective series (P-180); format: in vivo, human
Method: Patients and methods: Retrospective study was performed between January 2008 and APRIL 2017. Epidemiological data clinical data and outcome were reviewed.

[9] = tested on: cardiogenic shock patients; assay: OPTIMA CC double-blind randomized trial, epinephrine vs norepinephrine in cardiogenic shock after myocardial infarction; format: in vivo
Text: Patients and methods: Multicenter, double-blind, randomized trial in 8 french ICU. Cardiogenic shock patients due to myocardial infarction treated by PCI were randomized to receive epinephrine or norepinephrine to maintain MAP at 70 mmHg. Dobutamine was introduced at the physician discretion according to a combination of parameters—echocardiographic parameters, cardiac index, lactate clearance, SVO2 and Swan-Ganz derived parameters.

[10] = tested on: patients with severe alcohol withdrawal syndrome; assay: Continuous-infusion midazolam for severe alcohol withdrawal syndrome, complications; format: in vivo
Text: Patients and methods: We retrospectively reviewed the medical records of all patients hospitalized for alcohol withdrawal syndrome between 2006 and 2016. Only those who received continous-infusion of BZD, associated with close clinical monitoring and the evaluation of RASS and Cushman scores, without systematic recourse to mechanical ventilation, were included.

[11] = Acute olanzapine poisoning in ICU (P-182); format: in vivo, human
Method: Patients and methods: Retrospective analysis of all cases of olanzapine intoxication admitted in 12-bed teaching ICU between January 2013 and Decembre 2017. Inclusion criteria were patient age ≥ 14 year, acute olanzapine intoxication, the intoxication severity was assessed by the Poisoning Severity Score (PSS) of the European Association of Poison Centres and Clinical Toxicologists. The evaluation of electrocardiograms was performed in the first day of hospitalization. The durations of QRS and QTc was measured and arrhythmias and conduction disorders was identified.

Acinetobacter baumannii = format: cell-based
Method: Patients and methods: From January 2012 to December 2016, a total of 2,182 non repetitive strains were isolated from blood cultures. Incubation of blood culture vials and the detection of bacterial growth were performed by the BACTEC system. All Isolated organisms were identified on the basis of standard microbiological techniques. Antibiotic susceptibility testing was carried out by the agar disk diffusion method, and susceptibility results were interpreted using clinical breakpoints according to CA-SFM 2013 and 2015 guidelines. Data were analyzed using the SIR-system. Minimum inhibitory concentrations of colistin, imipenem and vancomycin were determined using the Etest® method (bioMérieux).

Pseudomonas aeruginosa = assay: Disk diffusion susceptibility of P. aeruginosa isolated from burned patients (P-48); format: cell-based; details: 485 strains from burned patients 2012-2015, disk diffusion, FSM breakpoints
anti-Xa activity = assay: Pharmacokinetics of unfractionated heparin (anti-Xa activity) in children under ECMO (P-171); format: in vivo, human (children)
Method: Patients and methods: This is a single center retrospective study from March 2015 to September 2016. Were included children (< 18 years old age) who were under ECMO for refractory hemodynamic failure related to (i) myocarditis or (ii) septic shock. Anti-Xa activity time-courses were analyzed using a non linear mixed effects approach with Monolix version 2016R.

[12] = median (range), 49 children, one compartment model

## CN(C)CCCN1c2ccccc2CCc2ccc(Cl)cc21 [CLO, clomipramine]
[1]
  plasma concentration: 700 ng/mL

## [C-]#[O+] [CO, Carbon monoxide]
[2]; 83 patients
  mean serum HbCO level on admission: 15 ± 8%
[2]; among identified disorders
  persistent headaches: 39%
[2]; in vivo
  anxiety-depressive disorders: 39%
  cognitive disorders: 22%
  irritability: 22%
  mean onset time of symptoms: 5 ± 3 months
[2]; telephone contact at 16 ± 9 months
  prevalence of patients with delayed neuropsychiatric sequelae: 26%

## CO/N=C(\C(=O)N[C@@H]1C(=O)N2C(C(=O)O)=C(COC(C)=O)CS[C@H]12)c1csc(N)n1 [CTX, cefotaxime]
[3]; intermittent infusions, target 2 mg L^−1
  target attainment of calculated residual concentrations: no patient succeeds to attain the target
[3]; [12]
  volume of distribution: 3.3 (0.85–20) L
[3]; median (range), 49 children, one compartment model, MONOLIX, HPLC
  CTX clearance: 0.97 (0.3–7.1) L h^−1

## CO/N=C(\C(=O)N[C@@H]1C(=O)N2C(C(=O)O)=C(CO)CS[C@H]12)c1csc(N)n1 [D-CTX, desacetylcefotaxime]
[3]; [12]
  D-CTX clearance: 3.2 (0.6–16.3) L h^−1

## CNC(C)C1CCC(N)C(OC2C(N)CC(N)C(OC3OCC(C)(O)C(NC)C3O)C2O)O1 (stereo not shown) [Gentamicin]
[4]
  rate of resistance: 50%

## CCn1cc(C(=O)O)c(=O)c2cc(F)c(N3CCNCC3)cc21 [Norfloxacin]
[4]
  rate of resistance: 89.13%

## CC1(C)S[C@@H]2[C@H](NC(=O)[C@H](N)c3ccc(O)cc3)C(=O)N2[C@H]1C(=O)O [amoxicillin]
[5]; 80% specificity and sensitivity
  residual concentration associated with occurrence of neurological disorders: greater than 40 mg L^−1
[5]; HPLC MS
  residual serum concentration, patients with neurological disorders or wakefulness delays: 157 ± 72 mg L^−1
  residual serum concentration, patients without neurological disorders: 35.8 ± 13.0 mg L^−1
[6]
  patients with insufficient plasma concentration: 86%

## C[C@@H]1[C@H](O)[C@@H](C)/C=C/C=C/C=C/C=C/C=C/C=C/C=C/[C@H](O[C@@H]2O[C@H](C)[C@@H](O)[C@H](N)[C@@H]2O)C[C@@H]2O[C@](O)(C[C@@H](O)C[C@@H](O)[C@H](O)CC[C@@H](O)C[C@@H](O)CC(=O)O[C@H]1C)C[C@H](O)[C@H]2C(=O)O [amphotericin B]
Candida isolates
  resistant strains: Only one strain was resistant

## C[C@H]1[C@H](NC(=O)/C(=N\OC(C)(C)C(=O)O)c2csc(N)n2)C(=O)N1S(=O)(=O)O [aztreonam]
[7]
  resistant rate: 67%

## Cc1nnc(SCC2=C(C(=O)O)N3C(=O)[C@@H](NC(=O)Cn4cnnn4)[C@H]3SC2)s1 [cefazoline, cefazolin]
[6]
  patients with insufficient plasma concentration: 25%

## CO/N=C(\C(=O)N[C@@H]1C(=O)N2C(C(=O)O)=C(COC(C)=O)CS[C@H]12)c1csc(N)n1 [cefotaxime]
[7]
  resistant rate: 97%

## CN1CCC(=C2c3ccccc3C=Cc3ccccc32)CC1 [cyproheptadine]
[8]; 56 patients
  delirium: 20%
  outcome: favorable in all cases
  patients with peripheral anti-cholinergic symptoms: Forty two
[8]; 56 patients, mean ingested dose 94 mg, range [1–14]
  median delay of symptoms onset: 3 h
[8]; in vivo
  correlation between coma and assumed ingested dose: no correlation
[8]; six ventilated patients, ± 4
  mean duration of mechanical ventilation: 17 h

## CNC[C@H](O)c1ccc(O)c(O)c1 [epinephrine]
[9]; H2 to H24
  arterial pH and lactate: lactic acidosis from H2 to H24
[9]; epinephrine vs norepinephrine group
  cardiac index and cardiac power index: increased significantly more
[9]; in vivo
  ECMO use: 11%
  cardiac double product (surrogate of myocardial oxygen consumption): increased
  heart rate evolution: increased significantly
  incidence of arrhythmia: 41%
  mortality: 52%
[9]; titrated to MAP 70 mmHg, epinephrine n = 27, norepinephrine n = 30
  incidence of refractory shock: 37%

## OC(Cn1cncn1)(Cn1cncn1)c1ccc(F)cc1F [fluconazole]
Candida isolates
  intermediate isolates: 11.1%
  resistant isolates: 11.1%
  susceptible isolates: 77.8%

## C[C@@H]1O[C@@H]1P(=O)(O)O [fosfomycin]
[7]; colistin excepting with Proteus
  susceptibility: 65%

## CCC(C)n1ncn(-c2ccc(N3CCN(c4ccc(OCC5COC(Cn6cncn6)(c6ccc(Cl)cc6Cl)O5)cc4)CC3)cc2)c1=O (stereo not shown) [itraconazole]
Candida isolates
  intermediate isolates: 81.5%

## CC(=O)N1CCN(c2ccc(OCC3COC(Cn4ccnc4)(c4ccc(Cl)cc4Cl)O3)cc2)CC1 (stereo not shown) [ketoconazole]
Candida isolates
  intermediate isolates: 40.7%

## C[C@@H](O)[C@H]1C(=O)N2C(C(=O)O)=C(S[C@@H]3CN[C@H](C(=O)N(C)C)C3)[C@H](C)[C@H]12 [meropenem]
[6]
  patients with insufficient plasma concentration: 50%

## Clc1ccc(COC(Cn2ccnc2)c2ccc(Cl)cc2Cl)c(Cl)c1 (stereo not shown) [miconazole]
Candida isolates
  intermediate isolates: 33.3%

## Cc1ncc2n1-c1ccc(Cl)cc1C(c1ccccc1F)=NC2 [midazolam]
[10]; IC 95% (2.11–168.15)
  OR of intubation and or pneumonia for maximum perfusion velocity > 8 mg h: 18.83
[10]; continuous infusion, median maximum 8 mg h, n = 104
  patients developing pneumonia and or requiring intubation: 12%
[10]; n = 104
  cardiac arrest and death: No cardiac arrest and death was observed
  patients with seizures: 8%

## Cc1cc2c(s1)Nc1ccccc1N=C2N1CCN(C)CC1 [olanzapine, Olanzapine]
[11]; 5 cases
  mean duration of prolonged QTc: 460 ± 28 ms
[11]; 8 patients, 3 cases
  Poisoning Severity Score moderate, monointoxication: 37.5%
[11]; 8 patients, 4 cases
  Poisoning Severity Score severe, monointoxication: 50%
[11]; 24 patients
  Poisoning Severity Score fatal: 1 case
[11]; 24 patients, 9 cases
  Poisoning Severity Score moderate: 37.5%
[11]; 24 patients, 14 cases
  Poisoning Severity Score severe: 58%
[11]; n = 8 of 24
  agitation: 33%
[11]; n = 15 of 24
  miosis: 62%
  tachycardia: 62%
[11]; of 24
  Coma Glosgow Scale < 12: 14 cases
  mechanical ventilation required: 58%
  prolonged QTc: 5 cases
human, in vivo
  QRS enlargement on the ECG: 10%
  QT widening: 23%
  abolished tendon reflexes: 31%
  increased tendon reflexes: 28%
  mydriasis: 10%
  myorelaxation: 68%
  myosis: 39%
  seizures: No seizure was observed
Median [0.185 + 0.820], ingested dose 200 mg [110 + 333], n = 71
  plasma concentration on admission: 310 ng/mL
Median [percentiles 25 + 75], multidrug ingestion
  Glasgow coma score: 4 [3 + 8]
non-compartmental analysis
  elimination in overdose: prolonged olanzapine elimination at elevated concentrations
Patients with pre-hospital cardiac arrest
  died in the ICU: 4%

## CO[C@H]1/C=C/O[C@@]2(C)Oc3c(C)c(O)c4c(O)c(c(/C=N/N5CCN(C)CC5)c(O)c4c3C2=O)NC(=O)/C(C)=C\C=C\[C@H](C)[C@H](O)[C@@H](C)[C@@H](O)[C@@H](C)[C@H](OC(C)=O)[C@@H]1C [rifampicin]
Acinetobacter baumannii; by 2016
  resistance rate: 67%
Acinetobacter baumannii; in 2014
  resistance rate: 15%

## CC1(C)S[C@@H]2[C@H](NC(=O)[C@H](C(=O)O)c3ccsc3)C(=O)N2[C@H]1C(=O)O [ticarcillin]
Pseudomonas aeruginosa
  strains resistant: 69%

## unfractionated heparin
anti-Xa activity; 12 children under ECMO, one-compartment, scaled to 70 kg
  typical clearance (CLTYP): 2.42 L/h
anti-Xa activity; 12 children under ECMO, scaled to 70 kg
  typical volume of distribution (VTYP): 5.1 L
anti-Xa activity; 37 of 214 samples
  samples with anti-Xa activity > 0.6 IU mL: 17%
anti-Xa activity; 81 of 214 samples
  samples with anti-Xa activity < 0.4 IU mL: 38%
anti-Xa activity; 96 of 214 samples, 12 children
  samples with anti-Xa activity in the target (0.4 to 0.6 IU mL): 45%
anti-Xa activity; of 12
  bleeding: 2 children
  thrombosis: 4 children
